How the values were obtained:
Format in all cases: cell-based
B16-F10 = test: High-throughput cell death assay I, B16-F10; settings: B16-F10, melanoma (mouse); read-out: diethyl TPMP IC50
Text: (§1) Compound CX5 was further tested using the same high-throughput cell death assay I for activity in inducing death in multiple cell lines representing a variety of cancer types.

MDA-MB-231 = test: High-throughput cell death assay I, MDA-MB-231; settings: Homo sapiens, read-out: diethyl TPMP IC50
Text: as §1

SK-MEL-5 = test: High-throughput cell death assay I, SK-MEL-5; settings: SK-MEL-5, melanoma (human); read-out: diethyl TPMP IC50
Text: as §1

CRL-1782 = test: High-throughput cell death assay I, CRL-1782; settings: CRL-1782, melanoma (human); read-out: diethyl TPMP IC50
Text: as §1

U-937 = test: High-throughput cell death assay I, U-937; settings: U-937, lymphoma (human); read-out: diethyl TPMP IC50
Text: (§2) According to the American Type Culture Collection (ATCC), U-937 is a human cell line of histiocytic lymphoma tissue with monocyte morphology. See Sundstrom C, Nilsson K, Int. J. Cancer 17: 565-577, 1976. Also according to ATCC, HL-60 is a human cell line of a tissue type described as peripheral blood, promyeloblast, and acute promyelocytic leukemia, with myeloblastic morphology. See Gallagher R, et al., Blood 54: 713-733, 1979.
as §1

HL-60 = test: High-throughput cell death assay I, HL-60; settings: HL-60, leukemia (human); read-out: diethyl TPMP IC50
Text: as §2, §1

K562 = test: High-throughput cell death assay I, K562; settings: K562, leukemia (CML, human); read-out: diethyl TPMP IC50
Text: as §1

NCI-H226 = test: High-throughput cell death assay I, NCI-H226; settings: NCI-H226, lung (human); read-out: diethyl TPMP IC50
Text: as §1

Hs578t = test: High-throughput cell death assay I, Hs578t; settings: Hs-578T, breast (human), read-out: diethyl TPMP IC50
Text: as §1

ACHN = test: High-throughput cell death assay I, ACHN; settings: renal (human), read-out: diethyl TPMP IC50
Text: as §1

SK-N-SH = test: High-throughput cell death assay I, SK-N-SH; settings: neuroblastoma (human), read-out: diethyl TPMP IC50
Text: as §1

CCOP(=O)(OCC)C(c1ccccc1)(c1ccccc1)c1ccccc1 [CX5]
IC50 (B16-F10): 0.81 µM | IC50 (MDA-MB-231): 1.09 µM | IC50 (SK-MEL-5): 3.39 µM | IC50 (CRL-1782): 1.41 µM | IC50 (U-937): 11.6 µM | IC50 (HL-60): 13.2 µM | IC50 (K562): 3.27 µM | IC50 (NCI-H226): 6.56 µM | IC50 (Hs578t): 13.2 µM | IC50 (ACHN): 9.69 µM | IC50 (SK-N-SH): 1.8 µM
